Patent US20220265629A1, “TREATMENT OF SYSTOLIC DYSFUNCTION AND HEART FAILURE WITH REDUCED EJECTION FRACTION WITH THE COMPOUND (R)-4-(1-((3-(DIFLUOROMETHYL)-1-METHYL-1H-PYRAZOL-4-YL)SULFONYL)-1-FLUOROETHYL)-N-(ISOXAZOL-3-YL)PIPERIDINE-1-CARBOXAMIDE” (MyoKardia, Inc., priority 2019, published 2022)
Like-named read-outs stand apart in the source and are kept apart here. Marks after values point to notes of the source that are not given here.

Legend:
[1] = system: patients with stable HFrEF; experiment: HFrEF study Part 2 (MAD Cohorts A-D): TTE pharmacodynamics by plasma concentration group; type: in vivo, human; details: for A-wave duration, mean change from baseline (placebo-corrected) / A-wave peak, mean change from baseline (placebo-corrected) / DBP (supine), mean change from baseline (placebo-corrected) / E-wave peak, mean change from baseline (placebo-corrected) / E/A ratio, mean change from baseline (placebo-corrected) / E/e′ (lateral), mean change from baseline (placebo-corrected) / Heart rate (supine), mean change from baseline (placebo-corrected) / IVRT, mean change from baseline (placebo-corrected) / LVEDD, mean change from baseline (placebo-corrected) / LVEDVi, mean change from baseline (placebo-corrected) / LVEF, mean change from baseline (placebo-corrected) / LVESD, mean change from baseline (placebo-corrected) / LVESVi, mean change from baseline (placebo-corrected) / LVFS, mean change from baseline (placebo-corrected) / LVGCS, mean change from baseline (placebo-corrected) / LVGLS, mean change from baseline (placebo-corrected) / LVSV, mean change from baseline (placebo-corrected) / SBP (supine), mean change from baseline (placebo-corrected) / SET, mean change from baseline (placebo-corrected) / Tei index, mean change from baseline (placebo-corrected) / e′ (lateral), mean change from baseline (placebo-corrected) / s′ (lateral), mean change from baseline (placebo-corrected): LS mean difference vs placebo
Method: PD assessment was done by transthoracic echocardiography as described in Example 1 above. TTE evaluations of LVSV (derived from LVOT-VTI), LVEF, LVFS, SET, and other parameters were PD assessments at predetermined time points. The patients were on bed rest for 10 minutes before the TTEs were obtained. In Part 2 (MAD), TTEs were usually obtained before the morning close and/or at 7 hours postclose (i.e., close to the anticipated peak effect based on the PK profile from the healthy volunteer studies).
The pharmacodynamic effects of Compound I on echocardiographic markers of cardiac structure and function were analyzed by Compound I plasma concentration groups: <2000 ng/mL (lower concentration group), 2000-3500 ng/mL (medium concentration group) and ≥3500 ng/mL (higher concentration group) (Table 16) and with PK-PD scatterplots (FIGS. 9A-9C). The medium concentration group corresponds to steady-state plasma concentrations achieved with 50 mg BID (Table 17). A total of 526 echocardiograms were performed from which the PK-PD analysis was derived.

[2] = Pharmacokinetics in beagle dogs (single doses); type: in vivo
Method: The pharmacokinetics of Compound I have been evaluated in multiple dog studies. […] At a single dose<3 mg/kg, the observed oral bioavailability was approximately 100%. This nonlinear pharmacokinetics of Compound I was also observed in humans. […] In order to delineate the underlying mechanism responsible for the nonlinear pharmacokinetics, physiologically-based absorption models of Compound I for beagle dogs and healthy volunteers were developed and used to assess the effect of particle size on the in vivo dissolution, absorption, bioavailability, and systemic exposure of Compound I.
Data used for Compound I physiologically-based pharmacokinetic (PBPK) model development and verification were obtained from in vivo nonclinical studies in dogs (FIG. 13), a clinical study in healthy volunteers (Example 1), and in vitro experiments (Table 20).

[3] = Single ascending oral dose study in healthy volunteers: urinary excretion and renal clearance; type: in vivo, human; details: for CL renal: human, plasma and urine
Method: The concentrations of Compound I in human plasma and urine were quantitated by high performance liquid chromatography with tandem mass spectrometric detection (LC MS/MS) (Biological sample analysis study report Alturas AD17-726). Plasma samples were extracted by protein precipitation with acetonitrile containing internal standard MYK-5654. The calibration curves were linear over concentration range of 0.500 to 1000 ng/mL with a lower limit of quantification (LLOQ) of 0.500 ng/mL.
The PK Population included all subjects who received Compound I. Blood samples were collected for PK assessments. The actual timing of the samples may have been modified and/or up to an additional 2 samples may have been requested by the SRC after review of the data from previous cohorts. It was important that PK sampling occurred as closely as possible to the scheduled time (±10%). Both blood and urine samples were used for PK assessments.

[4] = MAD cohorts, plasma concentration group 2000-<3500 ng/mL (n = 26)
[5] = MAD cohorts, plasma concentration group <2000 ng/mL (n = 30)
[6] = MAD cohorts, plasma concentration group ≥3500 ng/mL (n = 13)
[7] = higher concentration group (≥3500 ng/mL)
[8] = medium concentration group (2000-3500 ng/mL)

Cn1cc(S(=O)(=O)[C@@](C)(F)C2CCN(C(=O)Nc3ccon3)CC2)c(C(F)F)n1 [Compound I, (R)-4-(1-((3-(difluoromethyl)-1-methyl-1H-pyrazol-4-yl)sulfonyl)-1-fluoroethyl)-N-(isoxazol-3-yl)piperidine-1-carboxamide]
LVEF ([1]; MAD cohorts): non-significant increase
A-wave duration, mean change from baseline (placebo-corrected) [1, 4]: 5.9 ms
A-wave peak, mean change from baseline (placebo-corrected) [1, 4]: 6.1** cm/s
DBP (supine), mean change from baseline (placebo-corrected) [1, 4]: −0.2 mmHg
E-wave peak, mean change from baseline (placebo-corrected) [1, 4]: -2.1 cm/s
E/A ratio, mean change from baseline (placebo-corrected) [1, 4]: −0.1**
E/e′ (lateral), mean change from baseline (placebo-corrected) [1, 4]: −0.7
Heart rate (supine), mean change from baseline (placebo-corrected) [1, 4]: −2.0 bpm
IVRT, mean change from baseline (placebo-corrected) [1, 4]: 10.5 ms
LVEDD, mean change from baseline (placebo-corrected) [1, 4]: −0.9** mm
LVEDVi, mean change from baseline (placebo-corrected) [1, 4]: −1.1 mL/m^2
LVEF, mean change from baseline (placebo-corrected) [1, 4]: 1.1%
LVESD, mean change from baseline (placebo-corrected) [1, 4]: −1.3** mm
LVESVi, mean change from baseline (placebo-corrected) [1, 4]: −1.3 mL/m^2
LVFS, mean change from baseline (placebo-corrected) [1, 4]: 0.8%
LVGCS, mean change from baseline (placebo-corrected) [1, 4]: −2.1** %
LVGLS, mean change from baseline (placebo-corrected) [1, 4]: −0.9* %
LVSV, mean change from baseline (placebo-corrected) [1, 4]: 7.8** mL
SBP (supine), mean change from baseline (placebo-corrected) [1, 4]: −0.8 mmHg
SET, mean change from baseline (placebo-corrected) [1, 4]: 36** ms
Tei index, mean change from baseline (placebo-corrected) [1, 4]: −0.08**
e′ (lateral), mean change from baseline (placebo-corrected) [1, 4]: 0.1
s′ (lateral), mean change from baseline (placebo-corrected) [1, 4]: 0.6**
A-wave duration, mean change from baseline (placebo-corrected) [1, 5]: 6.0 ms
A-wave peak, mean change from baseline (placebo-corrected) [1, 5]: 4.1* cm/s
DBP (supine), mean change from baseline (placebo-corrected) [1, 5]: −0.9 mmHg
E-wave peak, mean change from baseline (placebo-corrected) [1, 5]: -3.8 cm/s
E/A ratio, mean change from baseline (placebo-corrected) [1, 5]: −0.1**
E/e′ (lateral), mean change from baseline (placebo-corrected) [1, 5]: −0.8
Heart rate (supine), mean change from baseline (placebo-corrected) [1, 5]: 0.0 bpm
IVRT, mean change from baseline (placebo-corrected) [1, 5]: 2.7 ms
LVEDD, mean change from baseline (placebo-corrected) [1, 5]: −0.5 mm
LVEDVi, mean change from baseline (placebo-corrected) [1, 5]: −1.1 mL/m^2
LVEF, mean change from baseline (placebo-corrected) [1, 5]: −0.3%
LVESD, mean change from baseline (placebo-corrected) [1, 5]: −0.8 mm
LVESVi, mean change from baseline (placebo-corrected) [1, 5]: −0.9 mL/m^2
LVFS, mean change from baseline (placebo-corrected) [1, 5]: 0.5%
LVGCS, mean change from baseline (placebo-corrected) [1, 5]: −0.4%
LVGLS, mean change from baseline (placebo-corrected) [1, 5]: −0.3%
LVSV, mean change from baseline (placebo-corrected) [1, 5]: 3.1 mL
SBP (supine), mean change from baseline (placebo-corrected) [1, 5]: −1.5 mmHg
SET, mean change from baseline (placebo-corrected) [1, 5]: 15** ms
Tei index, mean change from baseline (placebo-corrected) [1, 5]: −0.05
e′ (lateral), mean change from baseline (placebo-corrected) [1, 5]: −0.2
s′ (lateral), mean change from baseline (placebo-corrected) [1, 5]: 0.2
A-wave duration, mean change from baseline (placebo-corrected) [1, 6]: 11.9** msec
A-wave peak, mean change from baseline (placebo-corrected) [1, 6]: 4.3 cm/s
DBP (supine), mean change from baseline (placebo-corrected) [1, 6]: −1.4 mmHg
E-wave peak, mean change from baseline (placebo-corrected) [1, 6]: −10** cm/s
E/A ratio, mean change from baseline (placebo-corrected) [1, 6]: −0.2**
E/e′ (lateral), mean change from baseline (placebo-corrected) [1, 6]: 0.3
Heart rate (supine), mean change from baseline (placebo-corrected) [1, 6]: −1.1 bpm
IVRT, mean change from baseline (placebo-corrected) [1, 6]: 27.8** msec
LVEDD, mean change from baseline (placebo-corrected) [1, 6]: −1.8** mm
LVEDVi, mean change from baseline (placebo-corrected) [1, 6]: −5.2* mL/m^2
LVEF, mean change from baseline (placebo-corrected) [1, 6]: 2.3%
LVESD, mean change from baseline (placebo-corrected) [1, 6]: −1.8** mm
LVESVi, mean change from baseline (placebo-corrected) [1, 6]: −4.6** mL/m^2
LVFS, mean change from baseline (placebo-corrected) [1, 6]: 0.5%
LVGCS, mean change from baseline (placebo-corrected) [1, 6]: −3.3** %
LVGLS, mean change from baseline (placebo-corrected) [1, 6]: −1.0* %
LVSV, mean change from baseline (placebo-corrected) [1, 6]: 5.7* mL
SBP (supine), mean change from baseline (placebo-corrected) [1, 6]: −5.2* mmHg
SET, mean change from baseline (placebo-corrected) [1, 6]: 48** ms
Tei index, mean change from baseline (placebo-corrected) [1, 6]: −0.02
e′ (lateral), mean change from baseline (placebo-corrected) [1, 6]: −1.0**
s′ (lateral), mean change from baseline (placebo-corrected) [1, 6]: 0.3
SET increase ([1]; SAD and MAD cohorts): < 50 ms
increase in SV (forward flow) ([1]; SAD and MAD cohorts, exposure-related): 8 to 9 mL
Myocardial performance (Tei index) improved ([1]; SAD and MAD cohorts, concentrations ≥2000 ng/mL): approximately 10%
LV longitudinal as well as circumferential strain, mean placebo-corrected decrease [1, 7]: −3.3%
LVESD, mean placebo-corrected decrease [1, 7]: −1.8 mm
SET, mean placebo-corrected increase [1, 7]: 48 ms
peak E wave, decrease [1, 7]: -10 cm/s
stroke volume, mean placebo-corrected increase [1, 7]: 5.7 mL
LV longitudinal as well as circumferential strain, mean placebo-corrected decrease [1, 8]: −2.1%
LVESD, mean placebo-corrected decrease [1, 8]: −1.3 mm
SET, mean placebo-corrected increase [1, 8]: 36 ms
stroke volume, mean placebo-corrected increase [1, 8]: 7.8 mL
filling pressures (E/e′) ([1]; medium or higher concentration group): No change
bioavailability ([2]; beagle, dog, plasma, po, single dose <3 mg/kg, read-out: oral bioavailability): ~100%
bioavailability ([2]; beagle, dog, plasma, oral 10 mg/kg, micronized (Dv50=3.2 μm), read-out: bioavailability): > 100%
bioavailability ([2]; beagle, dog, plasma, oral 100 mg, Dv50=46 μm, read-out: bioavailability): ~40%
Vd ([2]; beagle, plasma, 1-compartmental model analysis of in vivo data in dog): 1.51 L/kg
clearance ([2]; beagle, plasma, 1-compartmental model analysis of in vivo data in dog, read-out: CL (Dog) (converted)): 1.58 mL/min/kg
bioavailability ([2]; single oral dose 25 mg (3 mg/kg) or lower, regardless of particle size): approximately 100%
dose recovered in 0-48 hours urine ([3]; 350 mg): approximately 6.0%
dose recovered in 0-48 hours urine ([3]; 525 mg): ~8.6%
CL renal ([3]; oral, all doses, read-out: renal clearance, mean (converted)): 9.5 mL/min
CL renal ([3]; po, 350 mg, 350 mg dose group, read-out: renal clearance, mean (SD) (converted)): 5.55 mL/min
CL renal ([3]; po, 525 mg, 525 mg dose group, read-out: renal clearance, mean (SD) (converted)): 13.3 mL/min
CL renal ([3]; po, all doses, read-out: renal clearance, individuals range): 2.95 to 23.3 mL/min
CL renal ([3]; po, all doses, read-out: renal clearance, mean (converted)): ~9.5 mL/min
